Results taken from US20110189297A1, “STABLE SOLID ORAL DOSAGE CO-FORMULATIONS” (Sequicia Pharmaceuticals, priority 2008, published 2011).

Assays:
CYP3A = conditions: human liver microsomes, in vitro; cited from earlier work
[1] = Dissolution study of hand-filled capsules in simulated gastric fluid, HPLC; type: physicochemical; conditions: capsule in 500 mL simulated gastric fluid
Description: Commercially available 200 mg Reyataz hard gelatin capsules (lot number 6E3004B) were emptied by hand to create a stockpile of Atazanavir (ATV) commercial powder. This commercially available 200 mg Reyataz capsule contains 200 mg ATV as Atazanavir sulphate plus 178 mg of excipients (crospovidone, lactose monohydrate and magnesium stearate) for a total weigh to of 378 mg. 189 mg of the stockpiled commercial powder (equivalent to 100 mg Atazanavir) was blended by tumbling in a glass vial with 100 mg of the spray-dried amorphous dispersion (SDD) of Compound II/EUDRAGIT L-100 (EL-100) where the Compound II:EL100 ratio was 1:1 (produced by Hovione FarmaCientia) and filled by hand into “0” hard gelatin capsules. Therefore, each hand-filled “0” hard gelatin capsule contained 100 mg ATV, […] of Compound II:EL100 (1:1) SDD and 89 mg of excipients. These capsules were dropped into 500 mL of simulated gastric fluid and the amounts of Compound II and ATV in the resulting suspension was determined by HPLC (see Table 1 and FIG. 1).

[2] = Pharmacokinetic study in beagle dogs, oral dry powder in capsules; type: in vivo
Description: A pharmacokinetic study was performed in beagle dogs to evaluate the performance of the oral dosage formulation prepared in Example 1 above. […] Both plasma levels and duration of exposure was increased.
The plasma exposure of the compound of Formula II from Compound II:EL100 (1:1) SDD powder alone was compared to co-administration with Atazanavir powder (FIG. 3). The ratio of the AUCs from mean plasma concentrations was 2.5, but the differences among individual animal was not statistically significant. The apparent increase in mean Compound II exposure came mostly later in the time course, after 8 hours.

[3] = Inherent anti-retroviral activity

Question: Which metabolising enzyme (CYP3A) does the source give for `COC(=O)N[C@H](C(=O)N[C@@H](Cc1ccccc1)[C@@H](O)CN(Cc1ccc(-c2ccccn2)cc1)NC(=O)[C@@H](NC(=O)OC)C(C)(C)C)C(C)(C)C.O=S(=O)(O)O` [Atazanavir, Atazanavir sulfate, reference compound] here?
Answer: The metabolising enzyme was “metabolized by CYP3A”.

Question: What about the “% of maximal ATV Conc.” value ([1]; 0 min) of the same molecule?
Answer: Its value is 0%.

Question: What about the “% of maximal ATV Conc.” value ([1]; 5 min) of the same molecule?
Answer: The value was 88.9%.

Question: What about the “% of maximal ATV Conc.” value ([1]; 10 min) of the same molecule?
Answer: The value was 93.4%.

Question: What about the “% of maximal ATV Conc.” value ([1]; 15 min) of the same molecule?
Answer: The value was 100.0%.

Question: And the “% of maximal ATV Conc.” value ([1]; 20 min)?
Answer: The value was 99.4%.

Question: What about the “% of maximal ATV Conc.” value ([1]; 25 min) of the same molecule?
Answer: The value was 99.1%.

Question: And the “% of maximal ATV Conc.” value ([1]; 30 min)?
Answer: Its value is 97.9%.

Question: With `CO[C@H](CN(CC(C)C)S(=O)(=O)c1ccc2occc2c1)[C@H](Cc1ccccc1)NC(=O)OC(C)(C)C` [Compound II] as the molecule, how does the “ratio of the AUCs from mean plasma concentrations of Compound II” value ([2]; 10 mg/kg Compound II from Compound II:EL100 (1:1) SDD with 20 mg/kg Atazanavir vs alone) read?
Answer: The value was 2.5.

Question: What about the “Cmax of Compound II, change on co-administration” value ([2]; Compound II:EL100 (1:1) SDD with Atazanavir vs alone) of the same molecule?
Answer: The value was “slightly increased”.

Question: And the “% of maximal Compound II Conc.” value ([1]; 0 min)?
Answer: The value was 0%.

Question: What about the “% of maximal Compound II Conc.” value ([1]; 5 min) of the same molecule?
Answer: Its value is 27.6%.

Question: And the “% of maximal Compound II Conc.” value ([1]; 10 min)?
Answer: The value was 61.9%.

Question: And the “% of maximal Compound II Conc.” value ([1]; 15 min)?
Answer: The value was 54.5%.

Question: And the “% of maximal Compound II Conc.” value ([1]; 20 min)?
Answer: The value was 88.2%.

Question: And the “% of maximal Compound II Conc.” value ([1]; 25 min)?
Answer: The value was 89.8%.

Question: And the “% of maximal Compound II Conc.” value ([1]; 30 min)?
Answer: Its value is 100.0%.

Question: And the inherent anti-retroviral activity [3]?
Answer: Its inherent anti-retroviral activity is “no inherent anti-retroviral activity”.
